≈ marks a conversion by molar mass, not a printed value.
Columns and labels:
[1] = system: Human immunodeficiency virus 1; test: Antiviral activity against HIV-1 infected in FlpIn-HEK293 cells assessed as activation of long terminal repeat driven gene expression incubated for 72 hrs by luciferase based cellular assay; assay type: functional, organism-based; details: Human immunodeficiency virus 1, HEK293, 72 h
[2] = system: Cytomegalovirus; test: Antiviral activity against CMV infected in FlpIn-HEK293 cells assessed as click beetle green reporter driven gene expression incubated for 72 hrs by luciferase based cellular assay; assay type: functional, organism-based; details: HEK293, 72 h
[3] = Aqueous solubility of compound at pH 2 by nephelometry; assay type: physicochemical
[4] = Aqueous solubility of compound at pH 6.5 by nephelometry; assay type: physicochemical
[5] = Metabolic stability in human liver microsomes assessed as half life at 1 uM measured upto 60 mins by LC-MS anlaysis; assay type: ADME, Microsome
[6] = Metabolic stability in human liver microsomes assessed as intrinsic clearance at 1 uM measured upto 60 mins by LC-MS analysis; assay type: ADME, Microsome; details: read-out: CLH
[7] = Metabolic stability in mouse liver microsomes assessed as half life at 1 uM measured upto 60 mins by LC-MS anlaysis; assay type: ADME, Microsome
[8] = Metabolic stability in mouse liver microsomes assessed as intrinsic clearance at 1 uM measured upto 60 mins by LC-MS anlaysis; assay type: ADME, Microsome; details: read-out: CLH
[9] = system: Human immunodeficiency virus 1; test: Antiviral activity against HIV-1 infected in FlpIn-HEK293 cells assessed as maximal activation of long terminal repeat driven gene expression at 0.13 uM incubated for 48 hrs by luciferase based cellular assay relative to control; assay type: functional
[10] = system: Human immunodeficiency virus 1; test: Antiviral activity against HIV-1 infected in J-Lat 10.6 cells assessed as maximal activation of long terminal repeat driven gene expression incubated for 48 hrs by green fluorescent protein based cellular assay; assay type: functional, organism-based; details: Human immunodeficiency virus 1, J-Lat 10.6, 48 h
[11] = system: Human immunodeficiency virus 1; test: Antiviral activity against HIV-1 infected in J-Lat 10.6 cells assessed as maximal activation of long terminal repeat driven gene expression at 0.13 uM incubated for 48 hrs by green fluorescent protein based cellular assay relative to control; assay type: functional
[12] = Cytotoxicity against human HepG2 cells assessed as growth incubation incubated for 48 hrs by cell titer glo assay; assay type: cell-based
[13] = molecular target: Cyclin-dependent kinase 9 (Homo sapiens) (UniProt P50750); test: Inhibition of CDK9 (unknown origin) at 0.5 uM
Sequence of Cyclin-dependent kinase 9 (Homo sapiens) (P50750 whole entry): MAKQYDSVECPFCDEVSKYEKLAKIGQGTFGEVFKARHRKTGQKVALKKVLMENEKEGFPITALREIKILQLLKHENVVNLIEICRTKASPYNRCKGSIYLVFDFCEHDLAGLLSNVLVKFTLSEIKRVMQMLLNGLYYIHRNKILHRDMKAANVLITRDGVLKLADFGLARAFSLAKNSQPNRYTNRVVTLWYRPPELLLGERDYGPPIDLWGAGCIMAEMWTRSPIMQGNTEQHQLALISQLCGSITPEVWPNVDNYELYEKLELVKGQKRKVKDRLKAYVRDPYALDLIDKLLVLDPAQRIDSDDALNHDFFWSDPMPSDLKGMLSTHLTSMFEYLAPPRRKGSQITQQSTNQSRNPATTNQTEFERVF

[14] = molecular target: T1, Cyclin-K (Homo sapiens) (UniProt O75909); test: Inhibition of cyclin K (unknown origin) at 0.5 uM
T1 sequence (whole entry): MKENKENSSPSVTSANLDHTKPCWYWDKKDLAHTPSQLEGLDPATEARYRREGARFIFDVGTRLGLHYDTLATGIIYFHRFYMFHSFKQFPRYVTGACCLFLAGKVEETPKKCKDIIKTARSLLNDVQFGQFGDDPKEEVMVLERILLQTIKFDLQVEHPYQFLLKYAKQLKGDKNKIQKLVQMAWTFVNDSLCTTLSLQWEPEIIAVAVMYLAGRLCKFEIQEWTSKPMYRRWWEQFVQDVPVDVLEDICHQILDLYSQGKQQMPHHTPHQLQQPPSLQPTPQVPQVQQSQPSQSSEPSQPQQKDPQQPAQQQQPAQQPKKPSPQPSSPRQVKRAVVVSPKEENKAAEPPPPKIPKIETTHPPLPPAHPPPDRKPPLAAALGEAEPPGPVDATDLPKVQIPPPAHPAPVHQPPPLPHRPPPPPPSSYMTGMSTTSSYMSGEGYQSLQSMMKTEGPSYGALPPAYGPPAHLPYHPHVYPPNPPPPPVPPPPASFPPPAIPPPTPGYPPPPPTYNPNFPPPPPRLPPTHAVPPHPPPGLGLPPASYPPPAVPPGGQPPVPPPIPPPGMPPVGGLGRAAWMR

[15] = molecular target: Cyclin-T1 (Homo sapiens) (UniProt O60563); test: Inhibition of cyclin T1 (unknown origin) at 0.5 uM
Sequence of Cyclin-T1 (Homo sapiens) (O60563 whole entry): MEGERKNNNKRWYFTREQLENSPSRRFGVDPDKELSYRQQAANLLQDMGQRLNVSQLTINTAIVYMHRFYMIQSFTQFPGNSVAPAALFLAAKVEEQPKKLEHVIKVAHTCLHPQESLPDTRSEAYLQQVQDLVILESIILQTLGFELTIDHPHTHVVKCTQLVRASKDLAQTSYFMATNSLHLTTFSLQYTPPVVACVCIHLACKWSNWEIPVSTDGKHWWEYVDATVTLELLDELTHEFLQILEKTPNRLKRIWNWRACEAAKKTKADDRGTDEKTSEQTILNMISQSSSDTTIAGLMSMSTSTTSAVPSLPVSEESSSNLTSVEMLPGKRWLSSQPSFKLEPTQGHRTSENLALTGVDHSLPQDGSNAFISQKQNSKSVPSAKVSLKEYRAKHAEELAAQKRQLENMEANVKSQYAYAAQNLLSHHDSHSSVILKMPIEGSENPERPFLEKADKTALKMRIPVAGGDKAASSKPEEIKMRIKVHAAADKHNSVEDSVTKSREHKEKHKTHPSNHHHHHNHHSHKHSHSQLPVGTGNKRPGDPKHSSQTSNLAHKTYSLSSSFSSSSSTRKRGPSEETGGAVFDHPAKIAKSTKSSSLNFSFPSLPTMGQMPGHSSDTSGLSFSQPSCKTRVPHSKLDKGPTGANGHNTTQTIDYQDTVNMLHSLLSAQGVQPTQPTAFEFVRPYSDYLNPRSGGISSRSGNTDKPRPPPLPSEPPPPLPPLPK

[16] = molecular target: Cyclin-T2 (Homo sapiens) (UniProt O60583); test: Inhibition of cyclin T2 (unknown origin) at 0.5 uM
Sequence of Cyclin-T2 (Homo sapiens) (O60583 whole entry): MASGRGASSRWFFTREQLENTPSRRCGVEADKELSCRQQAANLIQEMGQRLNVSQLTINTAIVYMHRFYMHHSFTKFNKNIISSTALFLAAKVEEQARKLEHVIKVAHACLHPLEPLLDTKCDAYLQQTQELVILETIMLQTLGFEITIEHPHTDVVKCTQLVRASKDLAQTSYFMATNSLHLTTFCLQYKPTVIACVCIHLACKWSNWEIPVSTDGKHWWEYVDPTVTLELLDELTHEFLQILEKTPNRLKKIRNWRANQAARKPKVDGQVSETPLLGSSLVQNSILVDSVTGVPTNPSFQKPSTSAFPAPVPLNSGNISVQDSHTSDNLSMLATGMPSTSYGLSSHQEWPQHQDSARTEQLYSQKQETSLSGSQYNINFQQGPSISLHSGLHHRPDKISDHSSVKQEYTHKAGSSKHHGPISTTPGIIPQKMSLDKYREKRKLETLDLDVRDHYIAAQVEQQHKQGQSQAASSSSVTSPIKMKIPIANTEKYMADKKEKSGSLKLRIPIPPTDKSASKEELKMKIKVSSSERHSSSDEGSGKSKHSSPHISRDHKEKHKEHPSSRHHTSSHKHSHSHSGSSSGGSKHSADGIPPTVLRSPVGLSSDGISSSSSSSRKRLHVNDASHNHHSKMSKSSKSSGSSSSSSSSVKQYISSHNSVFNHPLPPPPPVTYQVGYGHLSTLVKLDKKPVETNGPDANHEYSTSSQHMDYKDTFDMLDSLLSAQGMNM

[17] = system: Human immunodeficiency virus 1; test: Antiviral activity against HIV-1 infected in FlpIn-HEK293 cells assessed as maximal activation of long terminal repeat driven gene expression at 0.16 uM incubated for 48 hrs by luciferase based cellular assay relative to control; assay type: functional
[18] = system: Human immunodeficiency virus 1; test: Antiviral activity against HIV-1 infected in J-Lat 10.6 cells assessed as maximal activation of long terminal repeat driven gene expression at 0.25 uM incubated for 48 hrs by green fluorescent protein based cellular assay relative to control; assay type: functional
[19] = system: Human immunodeficiency virus 1; test: Antiviral activity against HIV-1 infected in FlpIn-HEK293 cells assessed as maximal activation of long terminal repeat driven gene expression at 1.3 uM incubated for 48 hrs by luciferase based cellular assay relative to control; assay type: functional
[20] = system: Human immunodeficiency virus 1; test: Antiviral activity against HIV-1 infected in J-Lat 10.6 cells assessed as maximal activation of long terminal repeat driven gene expression at 20 uM incubated for 48 hrs by green fluorescent protein based cellular assay relative to control; assay type: functional
[21] = system: Human immunodeficiency virus 1; test: Antiviral activity against HIV-1 infected in FlpIn-HEK293 cells assessed as maximal activation of long terminal repeat driven gene expression at 0.25 uM incubated for 48 hrs by luciferase based cellular assay relative to control; assay type: functional
[22] = system: Human immunodeficiency virus 1; test: Antiviral activity against HIV-1 infected in J-Lat 10.6 cells assessed as maximal activation of long terminal repeat driven gene expression at 1 uM incubated for 48 hrs by green fluorescent protein based cellular assay relative to control; assay type: functional
[23] = system: Human immunodeficiency virus 1; test: Antiviral activity against HIV-1 infected in FlpIn-HEK293 cells assessed as maximal activation of long terminal repeat driven gene expression at 0.63 uM incubated for 48 hrs by luciferase based cellular assay relative to control; assay type: functional
[24] = system: Human immunodeficiency virus 1; test: Antiviral activity against HIV-1 infected in J-Lat 10.6 cells assessed as maximal activation of long terminal repeat driven gene expression at 2 uM incubated for 48 hrs by green fluorescent protein based cellular assay relative to control; assay type: functional
[25] = system: Human immunodeficiency virus 1; test: Antiviral activity against HIV-1 infected in FlpIn-HEK293 cells assessed as maximal activation of long terminal repeat driven gene expression at 0.31 uM incubated for 48 hrs by luciferase based cellular assay relative to control; assay type: functional
[26] = system: Human immunodeficiency virus 1; test: Antiviral activity against HIV-1 infected in FlpIn-HEK293 cells assessed as maximal activation of long terminal repeat driven gene expression at 5 uM incubated for 48 hrs by luciferase based cellular assay relative to control; assay type: functional
[27] = system: Human immunodeficiency virus 1; test: Antiviral activity against HIV-1 infected in FlpIn-HEK293 cells assessed as maximal activation of long terminal repeat driven gene expression at 0.09 uM incubated for 48 hrs by luciferase based cellular assay relative to control; assay type: functional
[28] = system: Human immunodeficiency virus 1; test: Antiviral activity against HIV-1 infected in J-Lat 10.6 cells assessed as maximal activation of long terminal repeat driven gene expression at 0.06 uM incubated for 48 hrs by green fluorescent protein based cellular assay relative to control; assay type: functional

| SMILES | EC50 [1] [nM] | EC50 [2] [nM] | solubility kinetic [3] [µM] | solubility kinetic [4] [µM] | half-life at 1 µM [5] [min] | microsomal CLint at 1 µM [6] [µL/min/mg] | half-life at 1 µM [7] [min] | microsomal CLint at 1 µM [8] [µL/min/mg] | EC50 [10] [nM] | CC50 at 48 h [12] [nM] | other results |
| --- | --- | --- | --- | --- | --- | --- | --- | --- | --- | --- | --- |
| N#Cc1cnc(NC(=O)N2CCN(c3cnc(Cl)c(Cl)c3)CC2)s1 | 390 | 150 | < 1.6 | < 1.6 | – | – | 80 | 22 | 1100 | 120 | %max [17]: 25%; %max [18]: 28% |
| Cc1cc(OCCCC(=O)Nc2ncc(Cl)s2)ccc1Cl | – | – | – | – | – | – | – | – | 29000 | – | %max [19]: 39%; %max [20]: 15% |
| Cc1ccc(OCCCc2nc3cc(Cl)cnc3[nH]2)cc1Cl | 9400 | 12000 | 1.6 (≈ 0.538 µg/mL) | < 1.6 | 5 | 329 | < 2 | > 866 | – | – | – |
| Cc1cc(NC2CCN(C(=O)Nc3ncc(Cl)s3)C2)ccc1Cl (configuration not stated) | 790 | 1800 | 6.3 (≈ 2.34 µg/mL) | 1.6 (≈ 0.594 µg/mL) | – | – | 11 | 151 | 3000 | 680 | %max [23]: 39%; %max [24]: 20% |
| Cc1cnc(NC(=O)CCCOc2ccc(Cl)c(C)c2)s1 | – | – | < 1.1 | 1.1 (≈ 0.357 µg/mL) | 10 | 175 | 2 | 815 | – | – | – |
| N#Cc1cccc(N2CCN(C(=O)Nc3ncc(Cl)s3)CC2)c1 | 610 | 500 | < 1.6 | < 1.6 | – | – | 46 | 38 | 480 | 50 | %max [25]: 22%; %max [18]: 28% |
| Cc1cnc2[nH]c(N3CCN(c4ccc(C)c(Cl)c4)CC3)nc2c1 | 3200 | 2800 | 50 (≈ 17.1 µg/mL) | < 1.6 | 15 | 115 | 8 | 224 | – | – | – |
| Clc1cnc2[nH]c(CCCOc3cnc(Cl)c(Cl)c3)nc2c1 | 6400 | 2400 | 12.5 (≈ 4.47 µg/mL) | 1.6 (≈ 0.572 µg/mL) | – | – | 14 | 122 | > 4000 | 1900 | %max [9]: 26%; %max [24]: 11% |
| N#Cc1cnc(NC(=O)N2CCN(c3ccc(Cl)c(Cl)c3)CC2)s1 | 350 | 4400 | < 1.6 | < 1.6 | 151 | 11 | 117 | 15 | 1600 | 410 | %max [26]: 87%; %max [22]: 30% |
| Cc1ccc(N2CCN(C(=O)Nc3ncc(Cl)s3)CC2=O)cc1Cl | 640 | 13000 | 1.6 (≈ 0.616 µg/mL) | 1.6 (≈ 0.616 µg/mL) | – | – | 60 | 29 | 2700 | 42000 | %max [25]: 47%; %max [24]: 38% |

Further compounds by falling EC50 [1], results first:

| EC50 [1] [nM] | EC50 [2] [nM] | solubility kinetic [3] [µM] | solubility kinetic [4] [µM] | half-life at 1 µM [5] [min] | microsomal CLint at 1 µM [6] [µL/min/mg] | half-life at 1 µM [7] [min] | microsomal CLint at 1 µM [8] [µL/min/mg] | EC50 [10] [nM] | SMILES | CC50 at 48 h [12] [nM] | other results |
| --- | --- | --- | --- | --- | --- | --- | --- | --- | --- | --- | --- |
| 240 | 670 | < 1.6 | < 1.6 | – | – | 33 | 53 | 1700 | Cc1ccc(N2CCN(C(=O)Nc3ncc(Cl)s3)CC2)cc1Cl | 250 | %max [21]: 53%; %max [22]: 23%; inhibition [13]: 40%; inhibition [14]: 40%; inhibition [15]: 40%; inhibition [16]: 40% |
| 230 | 1700 | 1.6 (≈ 0.572 µg/mL) | 1.6 (≈ 0.572 µg/mL) | – | – | 36 | 49 | 1500 | Cc1ccc(NC2CN(C(=O)Nc3ncc(Cl)s3)C2)cc1Cl | 330 | %max [21]: 63%; %max [22]: 31% |
| 80 | 70 | < 1.6 | < 1.6 | 70 | 25 | 55 | 32 | 290 | O=C(Nc1ncc(Cl)s1)N1CCN(c2cnc(Cl)c(Cl)c2)CC1 | 40 | %max [9]: 65%; %max [11]: 26%; inhibition [13]: 60%; inhibition [14]: 60%; inhibition [15]: 60%; inhibition [16]: 60% |
| 80 | 27000 | 25 (≈ 9.59 µg/mL) | 1.6 (≈ 0.614 µg/mL) | – | – | 13 | 132 | 24000 | Clc1cnc2[nH]c(N3CCN(c4cnc(Cl)c(Cl)c4)CC3)nc2c1 | 40 | %max [27]: 57%; %max [28]: 28% |

Source: ChEMBL document CHEMBL4765284, “Optimization of 5-substituted thiazolyl ureas and 6-substituted imidazopyridines as potential HIV-1 latency reversing agents” (Eur J Med Chem, 2020)
